pEC50: −log10 of the molar value.

This is an account of results in ChEMBL document CHEMBL2062447, “The cephalostatins. 22. synthesis of bis-steroidal pyrazine pyrones (1)” (2012).

This assay concerns P388. In words: Growth inhibition of mouse P388 cells. It counts as functional. As to conditions: read-out: ED50 (the source's name).
`CC(=O)O[C@H]1CC[C@H]2[C@@H]3CC[C@H]4Cc5nc6c(nc5C[C@]4(C)[C@H]3CC[C@]12C)C[C@@H]1CC[C@@H]2[C@H](CC[C@]3(C)[C@@H](OC(C)=O)CC[C@@H]23)[C@@]1(C)C6`: the pEC50 was 4.04.
With `C[C@]12Cc3nc4c(nc3C[C@@H]1CC[C@@H]1[C@@H]2CC[C@]2(C)C(=O)CC[C@@H]12)C[C@@]1(C)[C@@H](CC[C@@H]2[C@@H]1CC[C@]1(C)C(=O)CC[C@@H]21)C4`, the pEC50 was 3.92.
In the case of `C[C@]12Cc3nc4c(nc3C[C@@H]1CC[C@@H]1[C@@H]2CC[C@]2(C)C(OS(=O)(=O)C(F)(F)F)=CC[C@@H]12)C[C@@]1(C)[C@@H](CC[C@@H]2[C@@H]1CC[C@]1(C)C(OS(=O)(=O)C(F)(F)F)=CC[C@@H]21)C4`, the pEC50 is 4.38.
In the case of `C[C@]12Cc3nc4c(nc3C[C@@H]1CC[C@H]1[C@H]3CC=C(c5ccc(=O)oc5)[C@@]3(C)CC[C@@H]12)C[C@@]1(C)[C@@H](CC[C@H]2[C@H]3CC=C(c5ccc(=O)oc5)[C@@]3(C)CC[C@@H]21)C4`, the pEC50 is 4.24.
In the case of `C[C@]12Cc3nc4c(nc3C[C@@H]1CC[C@@H]1[C@@H]2[C@@H](O)C[C@]2(C)/C(=C/[C@@H]3CC(=O)C=CO3)CC[C@@H]12)C[C@@]1(C)[C@@H](CC[C@@H]2[C@@H]1[C@@H](O)C[C@]1(C)/C(=C/[C@H]3CC(=O)C=CO3)CC[C@@H]21)C4`, the pEC50 was 4.60.
The result for `C[C@@H]1[C@]2(O[C@H]3C=C4[C@@H]5CC[C@H]6Cc7nc8c(nc7C[C@]6(C)[C@H]5C[C@@H](O)[C@]4(C)[C@]31O)C[C@@H]1CC[C@H]3C4=CC[C@@H]5[C@H](C)[C@@]6(OC[C@]45C(=O)C[C@@H]3[C@@]1(C)C8)OC(C)(C)C[C@H]6O)O[C@](C)(CO)C[C@H]2O` [CEPHALOSTATIN 1] reads 9.00; that for `C[C@@H]1[C@]2(O[C@H]3C=C4[C@@H]5CC[C@H]6Cc7nc8c(nc7C[C@]6(C)[C@H]5C[C@@H](O)[C@]4(C)[C@]31O)C[C@@H]1CC[C@H]3C4=C[C@@H]5O[C@]6(O[C@](C)(CO)C[C@H]6O)[C@@H](C)[C@]5(O)[C@@]4(C)[C@H](O)C[C@@H]3[C@@]1(C)C8)O[C@](C)(CO)C[C@H]2O` [CEPHALOSTATIN 12], 7.12.
